Patent US20170159101A1, “DRUG-RESISTANT P97 ATPASE MUTATIONS” (Cleave Biosciences, Inc., priority 2014, published 2017)
“And” between values parts separate entries of the source, which are not always exact repeats. Equal entries are not always repeated.

Assays:
Assay type in all cases: cell-based, human
[1] = test system: Hct116 resistant cell line clone #22 (p97 N660D); test: GI50 fold-change, resistant clone #22 vs parental; conditions: Clone #22, Hct116, resistance generated with compound 4, A1978G / N660D; 72 hrs
Experimental: (§1) Dose titration of test compounds were conducted in Hct116, DLD-1, or LoVo cell lines. In brief, cells were plated in 384-well plates and a selected candidate drug compound was added in a 10-point 2-fold serial dilution.

[2] = test system: Hct116 resistant cell line clone #25 (p97 P500T); test: GI50 fold-change, resistant clone #25 vs parental; conditions: Clone #25, Hct116, resistance generated with compound 4, C1498A / P500T; 72 hrs
Experimental: as §1

[3] = test system: Hct116 resistant cell line clone #27 (p97 T688A); test: GI50 fold-change, resistant clone #27 vs parental; conditions: Clone #27, Hct116, resistance generated with compound 4, A2062G / T688A; 72 hrs
Experimental: as §1

[4] = test system: Hct116 resistant cell line clone #29 (p97 N660K); test: GI50 fold-change, resistant clone #29 vs parental; conditions: Clone #29, Hct116, resistance generated with compound 4, C1980A / N660K; 72 hrs
Experimental: as §1

[5] = test system: Hct116 resistant cell line clone #30 (p97 F516L); test: GI50 fold-change, resistant clone #30 vs parental; conditions: Clone #30, Hct116, resistance generated with compound 4, T1546C / F516L; 72 hrs
Experimental: as §1

[6] = test system: Hct116 resistant cell line clone #31 (p97 C535Y); test: GI50 fold-change, resistant clone #31 vs parental; conditions: Clone #31, Hct116, resistance generated with compound 4, G1604A / C535Y; 72 hrs
Experimental: as §1

[7] = test system: Hct116 resistant cell line clone #33 (p97 P472L); test: GI50 fold-change, resistant clone #33 vs parental; conditions: Clone #33, Hct116, resistance generated with compound 4, C1415T / P472L; 72 hrs
Experimental: as §1

[8] = test system: Hct116 resistant cell line clone #34 (p97 E470D/E); test: GI50 fold-change, resistant clone #34 vs parental; conditions: Clone #34, Hct116, resistance generated with compound 4, G1410T/G / E470D/E; 72 hrs
Experimental: as §1

[9] = test system: Hct116 resistant cell line clone #42 (p97 P472A); test: GI50 fold-change, resistant clone #42 vs parental; conditions: Clone #42, Hct116, resistance generated with compound 4, C1414G / P472A; 72 hrs
Experimental: as §1

[10] = test system: Hct116 resistant cell line clone #45 (p97 F539I); test: GI50 fold-change, resistant clone #45 vs parental; conditions: Clone #45, Hct116, resistance generated with compound 4, T1615A / F539I; 72 hrs
Experimental: as §1

[11] = test system: Hct116 resistant cell line clone #47 (p97 E498D); test: GI50 fold-change, resistant clone #47 vs parental; conditions: Clone #47, Hct116, resistance generated with compound 4, G1494T / E498D; 72 hrs
Experimental: as §1

[12] = test system: DLD-1 resistant cell line clone #58 (p97 D649D/N); test: GI50 fold-change, resistant clone #58 vs parental; conditions: Clone #58, DLD-1, resistance generated with compound 4, G1945G/A / D649D/N; 72 hrs
Experimental: as §1

[13] = test system: DLD-1 resistant cell line clone #61 (p97 I620I/L); test: GI50 fold-change, resistant clone #61 vs parental; conditions: Clone #61, DLD-1, resistance generated with compound 4, T1859T/C / I620I/L; 72 hrs
Experimental: as §1

[14] = test system: DLD-1 resistant cell line clone #64 (p97 N660N/S); test: GI50 fold-change, resistant clone #64 vs parental; conditions: Clone #64, DLD-1, resistance generated with compound 4, A1979G/A / N660N/S; 72 hrs
Experimental: as §1

[15] = test system: DLD-1 resistant cell line clone #82 (p97 A569A/T); test: GI50 fold-change, resistant clone #82 vs parental; conditions: Clone #82, DLD-1, resistance generated with compound 4, G1705G/A / A569A/T; 72 hrs
Experimental: as §1

[16] = test system: DLD-1 resistant cell line clone #83 (p97 N660N/D); test: GI50 fold-change, resistant clone #83 vs parental; conditions: Clone #83, DLD-1, resistance generated with compound 4, A1978G/A / N660N/D; 72 hrs
Experimental: as §1

[17] = test system: DLD-1 resistant cell line clone #87 (p97 S541P); test: GI50 fold-change, resistant clone #87 vs parental; conditions: Clone #87, DLD-1, resistance generated with compound 4, T1621T/C / S541P; 72 hrs
Experimental: as §1

[18] = test system: Hct116 resistant cell line clone #90 (p97 Q473P); test: GI50 fold-change, resistant clone #90 vs parental; conditions: Clone #90, Hct116, resistance generated with compound 4, A1418C / Q473P; 72 hrs
Experimental: as §1

[19] = test system: Hct116 resistant cell line clone #108 (p97 P646T); test: GI50 fold-change, resistant clone #108 vs parental; conditions: Clone #108, Hct116, resistance generated with compound 4, C1936A / P646T; 72 hrs
Experimental: (§2) Dose titration of test compounds were conducted in Hct116, DLD-1, or LoVo cell lines. In brief, cells were plated in 384-well plates and a selected candidate drug compound was added in a 10-point 2-fold serial dilution. […] Hct116 cells were plated at 50,000 cells per 15 cm dish and treated with GI50-GI90 doses of test compound for 2-4 weeks until individual colonies of cells were visible on the plate.

[20] = test system: Hct116 resistant cell line clone #117 (p97 L482I); test: GI50 fold-change, resistant clone #117 vs parental; conditions: Clone #117, Hct116, resistance generated with compound 4, C1444A / L482I; 72 hrs
Experimental: as §1

[21] = test system: Hct116 resistant cell line clone #137 (p97 T475I); test: GI50 fold-change, resistant clone #137 vs parental; conditions: Clone #137, Hct116, resistance generated with compound 4, C1424T / T475I; 72 hrs
Experimental: as §1

[22] = test system: Hct116 resistant cell line clone #139 (p97 P472S); test: GI50 fold-change, resistant clone #139 vs parental; conditions: Clone #139, Hct116, resistance generated with compound 4, C1414T / P472S; 72 hrs
Experimental: as §1

[23] = test system: Hct116 resistant cell line clone #152 (p97 T688I); test: GI50 fold-change, resistant clone #152 vs parental; conditions: Clone #152, Hct116, resistance generated with compound 4, C2063T / T688I, 72 hrs
Experimental: as §2

[24] = test system: Hct116 resistant cell line clone #180 (p97 A569T); test: GI50 fold-change, resistant clone #180 vs parental; conditions: Clone #180, Hct116, resistance generated with compound 4, G1705A / A569T; 72 hrs
Experimental: as §1

[25] = test system: Hct116 resistant cell line clone #207 (p97 V485D); test: GI50 fold-change, resistant clone #207 vs parental; conditions: Clone #207, Hct116, resistance generated with compound 4, T1454A / V485D; 72 hrs
Experimental: as §1

[26] = test system: LoVo resistant cell line clone #221 (p97 V474V/A); test: GI50 fold-change, resistant clone #221 vs parental; conditions: Clone #221, LoVo, resistance generated with compound 4, T1421C/T / V474V/A; 72 hrs
Experimental: as §2

[27] = test system: Hct116 resistant cell line clone #6 (p97 A528T); test: GI50 fold-change, resistant clone #6 vs parental; conditions: Clone #6, Hct116, resistance generated with compound 2, G1582 / A528T; 72 hrs
Experimental: as §1

[28] = test system: Hct116 resistant cell line clone #1 (p97 D649N); test: GI50 fold-change, resistant clone #1 vs parental; conditions: Clone #1, Hct116, resistance generated with compound 2, G1945A / D649N; 72 hrs
Experimental: as §1

## Cc1cc2c(CN)cccc2n1-c1nc2c(c(NCc3ccccc3)n1)CCCC2 [Compound 6, 2-[4-(aminomethyl)-2-methyl-1H-indol-1-yl]-N-benzyl-5,6,7,8-tetrahydroquinazolin-4-amine]
[1]
  Fold Change in GI50 Compared to Parental Cell Line: 1.8 fold
[2]
  Fold Change in GI50 Compared to Parental Cell Line: 1.9 fold
[3]
  Fold Change in GI50 Compared to Parental Cell Line: 2.3 fold
[4]
  Fold Change in GI50 Compared to Parental Cell Line: 3.8 fold
[5]
  Fold Change in GI50 Compared to Parental Cell Line: 4.1 fold
[6]
  Fold Change in GI50 Compared to Parental Cell Line: 3.3 fold
[7]
  Fold Change in GI50 Compared to Parental Cell Line: 5.3 fold
[8]
  Fold Change in GI50 Compared to Parental Cell Line: 2.7 fold
[9]
  Fold Change in GI50 Compared to Parental Cell Line: 3.5 fold
[10]
  Fold Change in GI50 Compared to Parental Cell Line: 3.4 fold
[11]
  Fold Change in GI50 Compared to Parental Cell Line: 1.8 fold
[12]
  Fold Change in GI50 Compared to Parental Cell Line: 2.0 fold
[13]
  Fold Change in GI50 Compared to Parental Cell Line: 3.3 fold
[14]
  Fold Change in GI50 Compared to Parental Cell Line: 2.7 fold
[15]
  Fold Change in GI50 Compared to Parental Cell Line: 4.5 fold
[16]
  Fold Change in GI50 Compared to Parental Cell Line: 1.3 fold
[17]
  Fold Change in GI50 Compared to Parental Cell Line: 0.9 fold
[18]
  Fold Change in GI50 Compared to Parental Cell Line: 2.1 fold
[19]
  Fold Change in GI50 Compared to Parental Cell Line: 1.6 fold
[20]
  Fold Change in GI50 Compared to Parental Cell Line: 2.3 fold
[21]
  Fold Change in GI50 Compared to Parental Cell Line: 2.8 fold
[22]
  Fold Change in GI50 Compared to Parental Cell Line: 3.5 fold
[23]
  Fold Change in GI50 Compared to Parental Cell Line: 1.4 fold
[23]; listed as compound 6
  Fold Change in GI50 Compared to Parental Cell Line: 1.4 fold and 1.42 fold
[24]
  Fold Change in GI50 Compared to Parental Cell Line: 3.4 fold
[25]
  Fold Change in GI50 Compared to Parental Cell Line: 2.7 fold
[26]
  Fold Change in GI50 Compared to Parental Cell Line: 2.2 fold

## Cc1cc2c(C(N)=O)cccc2n1-c1nc2c(c(NCc3ccccc3)n1)CNCC2 [Compound 3, 1-[4-(benzylamino)-5H,6H,7H,8H-pyrido[4,3-d]pyrimidin-2-yl]-2-methyl-1H-indole-4-carboxamide]
[27]
  Fold Change in GI50 Compared to Parental Cell Line: 13.4 fold
[2]
  Fold Change in GI50 Compared to Parental Cell Line: 2.2 fold
[5]
  Fold Change in GI50 Compared to Parental Cell Line: 10.0 fold
[9]
  Fold Change in GI50 Compared to Parental Cell Line: 7.0 fold
[10]
  Fold Change in GI50 Compared to Parental Cell Line: 6.9 fold
[12]
  Fold Change in GI50 Compared to Parental Cell Line: 2.0 fold
[13]
  Fold Change in GI50 Compared to Parental Cell Line: 1.0 fold
[14]
  Fold Change in GI50 Compared to Parental Cell Line: 1.2 fold
[15]
  Fold Change in GI50 Compared to Parental Cell Line: 4.9 fold
[16]
  Fold Change in GI50 Compared to Parental Cell Line: 2.4 fold
[17]
  Fold Change in GI50 Compared to Parental Cell Line: 34.6 fold
[19]
  Fold Change in GI50 Compared to Parental Cell Line: 1.6 fold
[20]
  Fold Change in GI50 Compared to Parental Cell Line: 4.4 fold
[22]
  Fold Change in GI50 Compared to Parental Cell Line: 4.2 fold
[23]
  Fold Change in GI50 Compared to Parental Cell Line: 40.2 fold
[26]
  Fold Change in GI50 Compared to Parental Cell Line: 4.1 fold

## COc1nc2ccccc2n1-c1nc2c(c(NCc3ccccc3)n1)CCCC2 [Compound 2, N-benzyl-2-(2-methoxy-1H-1,3-benzodiazol-1-yl)-5,6,7,8-tetrahydroquinazolin-4-amine]
[28]
  Fold Change in GI50 Compared to Parental Cell Line: 4.5 fold
[12]
  Fold Change in GI50 Compared to Parental Cell Line: 1.4 fold
[13]
  Fold Change in GI50 Compared to Parental Cell Line: 1.1 fold
[14]
  Fold Change in GI50 Compared to Parental Cell Line: 0.6 fold
[16]
  Fold Change in GI50 Compared to Parental Cell Line: 2.6 fold
[17]
  Fold Change in GI50 Compared to Parental Cell Line: 1.3 fold
[19]
  Fold Change in GI50 Compared to Parental Cell Line: 1.3 fold
[23]
  Fold Change in GI50 Compared to Parental Cell Line: 2.1 fold
[26]
  Fold Change in GI50 Compared to Parental Cell Line: 2.2 fold
